We go through 1 molecule from publication PMC6386944, “Design and Synthesis of A PD-1 Binding Peptide and Evaluation of Its Anti-Tumor Activity” (International Journal of Molecular Sciences, 2019).

In the series the test system is TE-13 cells co-cultured with T cells. Kind of series: Lactate dehydrogenase (LDH) release assay, T cell cytotoxicity. The settings on record: TE-13 and T cells at 16:1; FITC-YT-16 1, 2, 4, 8 and 16 µM; overnight, 37 °C; A490; triplicate wells. In kind it is cell-based, human. From the text:
The experiment in Figure 10 mainly evaluated the activation status of CD4^+ T cells by detection of IL-2 and INF-γ levels in the culture supernatant. The test in Figure 11 mainly evaluated the enhanced cytotoxicity by CD8^+ T cells by detection of lactate dehydrogenase (LDH) release in the culture supernatant. Activated CD8 T cells can recognize tumor cells and kill tumor cells by means of degranulation and Fas/FasL recognition. After the tumor cells were damaged, a cytoplasmic enzyme with name lactate dehydrogenase (LDH) is released from damaged cells into the supernatant and by measuring the levels of LDH, we can evaluate the cytotoxic effect of CD8 T cells. […]
Effect of FITC-YT-16 peptide on T cell cytotoxicity was detected by measuring the release of a cytoplasmic enzyme, lactate dehydrogenase (LDH), from damaged cells into the supernatant by using a colorimetric assay according to cytotoxicity detection kit (Cayman Chemical, Ann Arbor, MI, USA). […] The supernatant was transferred to a new 96-well assay plate and the LDH reaction solution was added to each well and incubated for 30 min at 37 °C before the absorbance was read at 490 nm. […] Triplicate wells were averaged and the percentage of specific lysis was calculated by the following equation: % Cytotoxicity=[Experimental value A490−Spontaneous release A490/Maximum release A490−Spontaneous release A490]∗100

Each structure is given as a SMILES string. Bridge positions count the residues as written; N and C are the ends. Peptide text beside a SMILES is read from it. * marks the point of attachment. FITC = O=C1OC2(c3ccc(O)cc3Oc3cc(O)ccc32)c2ccc(NC(=S)*)cc21; Ahx = NCCCCCC(=O)O

Turning to `CC[C@H](C)[C@@H]1NC(=O)[C@H](CCSC)NC(=O)[C@@H](NC(=O)[C@H](CCCNC(=N)N)NC(=O)[C@H](Cc2ccc(O)cc2)NC(=O)CCCCCNC(=S)Nc2ccc3c(c2)C(=O)OC32c3ccc(O)cc3Oc3cc(O)ccc32)CSSC[C@@H](C(=O)N[C@H](C(=O)N[C@H](C(=O)O)[C@@H](C)O)[C@@H](C)CC)NC(=O)[C@H](CCCCN)NC(=O)[C@H](Cc2ccc(O)cc2)NC(=O)[C@H](CC(=O)O)NC(=O)[C@H](C)NC(=O)CNC(=O)CNC(=O)[C@H](Cc2ccc(O)cc2)NC(=O)[C@H](CO)NC1=O` [FITC-YT-16] ({FITC-Ahx}-YRCMISYGGADYKCIT-OH; disulfide 3-14), the “T cell cytotoxicity, concentration dependence” value was “dose-dependently increased”.
